ChEMBL document CHEMBL4888484, “Replenishing the malaria drug discovery pipeline: Screening and hit evaluation of the MMV Hit Generation Library 1 (HGL1) against asexual blood stage Plasmodium falciparum ,using a nano luciferase reporter read-out” (2022)

Columns and labels:
Plasmodium falciparum [1] = assay: Hit confirmation in dose-response curve in NF54 nanoGlo assay, at 72h; assay type: functional, organism-based, Erythrocyte; parameters: timepoint 72 hour; settings: Plasmodium falciparum, NF54, Erythrocyte, 72 h
Plasmodium falciparum [2] = assay: Hit confirmation in dose-response curve in NF54 pLDH assay, at 72h; assay type: functional, organism-based; parameters: timepoint 72 hour; settings: NF54, Erythrocyte
Plasmodium falciparum [3] = assay: Hit confirmation in dose-response curve in Dd2 pLDH assay, at 72h; assay type: functional, organism-based; parameters: timepoint 72 hour; settings: Dd2, Erythrocyte
Plasmodium falciparum [4] = assay: Hit confirmation in dose-response curve in NF54 nanoGlo assay, at 12h; assay type: functional, organism-based, Erythrocyte; parameters: timepoint 12 hour; settings: Plasmodium falciparum, NF54, Erythrocyte, 12 h
[5] = Hit confirmation in dose-response curve in HepG2 cytotoxicity assay, at 72h; assay type: toxicity, cell-based; parameters: timepoint 72 hour; settings: human, HepG2 cells

| IC50 (Plasmodium falciparum [1]) | IC50 (Plasmodium falciparum [2]) | IC50 (Plasmodium falciparum [3]) | IC50 (Plasmodium falciparum [4]) | SMILES | IC50 at 72 h [5] |
| --- | --- | --- | --- | --- | --- |
| 1950 nM | 5620 nM | 3090 nM | 5130 nM | Oc1ccc(-c2nnc(-c3ccc(O)cc3)nn2)cc1 | > 10000 nM |
| 4370 nM | > 10000 nM | 8130 nM | 8510 nM | Oc1ccccc1CNc1cccc2cccnc12 | > 10000 nM |
| 1820 nM | 4070 nM | 3240 nM | > 10000 nM | Fc1ccccc1N1CCN(C2CCN(Cc3c[nH]c4ccccc34)CC2)CC1 | > 10000 nM |
| 3090 nM | 3470 nM | 2630 nM | > 10000 nM | C=Cn1cc[n+](CC(=O)c2ccc(-c3ccccc3)cc2)c1 | > 10000 nM |
| 1780 nM | 2630 nM | 1070 nM | 10200 nM | CNc1nc(NCc2ccccc2)nc2ccccc12 | > 10000 nM |
| 1380 nM | 2630 nM | 1450 nM | 2880 nM | Cc1cc(N2CC(OCc3ccccc3)C2)nc(Nc2cccc(O)c2)n1 | > 10000 nM |
| 2240 nM | 8320 nM | 7940 nM | 1660 nM | O=C(Nc1cccnc1)c1ccc(-c2ccc(Cl)c(Cl)c2)o1 | > 10000 nM |
| 4270 nM | > 10000 nM | > 10000 nM | 1450 nM | C[C@H]1Cc2cc(C(=O)NCc3nc(C(F)(F)F)n[nH]3)ccc2O1 | > 10000 nM |
| 1510 nM | 2570 nM | 1780 nM | > 10000 nM | Cc1cc[n+]2c(-c3ccccc3)cc(-c3ccccc3)nc2c1 | > 10000 nM |
| 1050 nM | 2820 nM | 2290 nM | > 10000 nM | Cc1cc(C)c(NC(=O)OCc2cccc3cccnc23)c(C)c1 | > 10000 nM |
| 4680 nM | > 10000 nM | 10700 nM | > 10000 nM | Cc1cc(OCCOCCNCCN)cc(C(C)C)c1 | > 10000 nM |
| 692 nM | 1510 nM | 1200 nM | 1320 nM | CN1CCC(n2ncc3[nH]c(-c4ccc(C(F)(F)F)cc4)nc32)CC1 | > 10000 nM |
| 4070 nM | > 10000 nM | > 10000 nM | 832 nM | COc1cccc(N2C(=O)C[C@]3(CC3(c3ccccc3)c3ccccc3)C2=O)c1 | > 10000 nM |
| 871 nM | 1820 nM | 1860 nM | > 10000 nM | CCCc1cc(-c2nc(-c3ccc(-n4nc(C)cc4N)cc3)no2)n(C)n1 | > 10000 nM |
| 1320 nM | 2000 nM | 2510 nM | > 10000 nM | O=C(Nc1nc2cccc(Cl)c2o1)c1cccc(F)c1 | > 10000 nM |
| 2450 nM | 9330 nM | 5620 nM | 1480 nM | COc1ccc([C@H](NC(=O)CCc2ccccc2)c2c(O)ccc3ccccc23)cc1 | > 10000 nM |
| 2820 nM | 5370 nM | 4790 nM | > 10000 nM | CCCn1ccnc1-c1cn(Cc2cc3ccccc3[nH]2)nn1 | > 10000 nM |
| 1510 nM | 6920 nM | 3720 nM | 3720 nM | NCc1cccc(C(=O)N2CCc3cc4ccc3[C@@H]2c2cccc(c2)OCCCNC(=O)c2cc(ccc2O)O4)c1 | > 10000 nM |
| 1510 nM | 2040 nM | 1550 nM | 2950 nM | CC(=O)c1cc(-c2cc(O)cc(CC[C@H]3CCCCN3)c2)ccc1O | > 10000 nM |

| IC50 (Plasmodium falciparum [1]) | IC50 (Plasmodium falciparum [2]) | IC50 (Plasmodium falciparum [3]) | IC50 (Plasmodium falciparum [4]) | SMILES | IC50 at 72 h [5] |
| --- | --- | --- | --- | --- | --- |
| 1660 nM | 1910 nM | 1380 nM | 4680 nM | CN1CCC(N2CCN(Cc3ccc4cc(O)ccc4c3)CC2)CC1 | > 10000 nM |
| 1200 nM | 1740 nM | 2630 nM | 2450 nM | Oc1ccc2cc(CN3CCC[C@H](CN4CCCC4)C3)ccc2c1 | > 10000 nM |
| 912 nM | 1860 nM | 661 nM | > 10000 nM | CNc1nc(NCCc2ccccc2)nc2ccccc12 | > 10000 nM |
| 2140 nM | 3470 nM | 2510 nM | 6310 nM | O[C@@]1(CN2CCC(COc3ccc4c(c3)CCC4)CC2)CCCNC1 | > 10000 nM |
| 851 nM | 1170 nM | 1170 nM | 1910 nM | CNc1nc(Nc2ccc3c(c2)OCCO3)nc2ccccc12 | > 10000 nM |
| 2400 nM | 8320 nM | 4070 nM | 4370 nM | Cc1cc(OC[C@@H](O)CNC(C)(C)CC(C)(C)C)cc(C)c1Cl | 10500 nM |
| 2000 nM | 3800 nM | 3470 nM | > 10000 nM | CN(C)c1nc(N)cc(-c2cccc3cccnc23)n1 | > 10000 nM |
| 3160 nM | 5750 nM | > 10000 nM | 8710 nM | CCNc1ccnc(NCc2nc(-c3cccc(F)c3)c(-c3ccccn3)[nH]2)n1 | > 10000 nM |
| 2570 nM | 4270 nM | > 10000 nM | > 10000 nM | Oc1nc(N2CCOC3(CCCC3)C2)ncc1F | > 10000 nM |
| 1230 nM | 1350 nM | 1000 nM | 1740 nM | CCN(CCN(C)C)C(=O)c1cccc(-c2ccc3nccc(N)c3c2)c1 | > 10000 nM |
| 501 nM | 269 nM | 269 nM | 2950 nM | Cc1cc(-c2cc(O)cc(CC[C@H]3CCCCN3)c2)ccn1 | > 10000 nM |
| 1350 nM | 3550 nM | 3240 nM | 1620 nM | Cc1ccc(CN2CCN(C[C@@H](O)Cn3c4ccccc4n4c(=O)cc(C)c(C#N)c34)CC2)c(C)c1 | > 10000 nM |
| 1580 nM | 2090 nM | 2290 nM | 1910 nM | COc1ccccc1CN1COc2cc3c(cc2C1)OCO3 | > 10000 nM |
| 2140 nM | 2190 nM | 2630 nM | 2880 nM | Cc1nnc(CNC(=O)Nc2cccc3c4c(oc23)CCCC4)o1 | > 10000 nM |
| 1820 nM | 4070 nM | 3240 nM | 3160 nM | Nc1nc(C2CC(N)C2)cc(N2CCC(Oc3ccccc3Cl)CC2)n1 (stereo not given) | > 10000 nM |
| 47.9 nM | 83.2 nM | > 10000 nM | > 10000 nM | COc1nc(NC2CCS(=O)(=O)CC2)ncc1F | > 10000 nM |
| 1950 nM | 3390 nM | 1860 nM | > 10000 nM | Cc1cc(N2CCC3(CCCN3Cc3cc(C#N)n(C)c3C)CC2)c2ccccc2n1 | > 10000 nM |
| 2240 nM | 8130 nM | 4070 nM | > 10000 nM | O=C1NCCCOc2cccc(c2)[C@H]2c3ccc(cc3CCN2C(=O)CCN2CCOCC2)Oc2ccc(O)c1c2 | > 10000 nM |
| 479 nM | 380 nM | 355 nM | 708 nM | CN1CCN(C2(CNc3ccnc4ccccc34)CCCC2)CC1 | > 10000 nM |

| SMILES | IC50 (Plasmodium falciparum [1]) | IC50 (Plasmodium falciparum [2]) | IC50 (Plasmodium falciparum [3]) | IC50 (Plasmodium falciparum [4]) | IC50 at 72 h [5] |
| --- | --- | --- | --- | --- | --- |
| COc1ccc(-c2csc(-n3cc(C4=CCN(CCO)CC4)cn3)n2)cc1 | 5130 nM | 5500 nM | > 10000 nM | > 10000 nM | > 10000 nM |
